How the values were obtained:
Assay type in all cases: in vivo
[1] = test system: Chilo suppressalis (Striped rice stemborer); test: Example B4: Chilo suppressalis (Striped rice stemborer), artificial diet; settings: 144 h, application rate 200 ppm, L2 larvae, 6 days after infestation, read-out: control in at least one of the three categories (mortality, anti-feedant effect, or growth inhibition)
Method: Example B4: Chilo suppressalis (Striped rice stemborer) 24-well microtiter plates with artificial diet were treated with aqueous test solutions prepared from 10′000 ppm DMSO stock solutions by pipetting. After drying, the plates were infested with L2 larvae (6-8 per well). The samples were assessed for mortality, anti-feeding effect, and growth inhibition in comparison to untreated samples 6 days after infestation. Control of Chilo suppressalis by a test sample is given when at least one of the categories mortality, anti-feedant effect, and growth inhibition is higher than the untreated sample.

[2] = test system: Plutella xylostella (Diamond back moth); test: Example B5: Plutella xylostella (Diamond back moth), artificial diet, 24-well; settings: 192 h, application rate 200 ppm, eggs, 8 days after infestation, read-out: control in at least one of the two categories (mortality or growth inhibition)
Method: Example B5: Plutella xylostella (Diamond back moth)
24-well microtiter plates with artificial diet were treated with aqueous test solutions prepared from 10′000 ppm DMSO stock solutions by pipetting. After drying, Plutella eggs were pipetted through a plastic stencil onto a gel blotting paper and the plate was closed with it. The samples were assessed for mortality and growth inhibition in comparison to untreated samples 8 days after infestation.
(§1) The following compounds gave an effect of at least 80% control in at least one of the two categories (mortality or growth inhibition) at an application rate of 200 ppm: […]

[3] = test system: Spodoptera littoralis (Egyptian cotton leaf worm); test: Example B9: Spodoptera littoralis (Egyptian cotton leaf worm), sprayed cotton leaf discs; settings: foliar, 72 h, application rate 200 ppm, L1 larvae, 3 days after infestation, read-out: control in at least one of the three categories (mortality, anti-feedant effect, or growth inhibition)
Method: Example B9: Spodoptera littoralis (Egyptian cotton leaf worm)
Cotton leaf discs were placed onto agar in 24-well microtiter plates and sprayed with aqueous test solutions prepared from 10′000 ppm DMSO stock solutions. After drying the leaf discs were infested with five L1 larvae. The samples were assessed for mortality, anti-feeding effect, and growth inhibition in comparison to untreated samples 3 days after infestation. Control of Spodoptera littoralis by a test sample is given when at least one of the categories mortality, anti-feedant effect, and growth inhibition is higher than the untreated sample.

[4] = test system: Diabrotica balteata (Corn root worm); test: Example B1: Diabrotica balteata (Corn root worm), sprayed maize sprouts; settings: 96 h, application rate 200 ppm, L2 larvae, 4 days after infestation, read-out: control in at least one of the two categories (mortality or growth inhibition)
Method: Example B1: Diabrotica balteata (Corn root worm)
Maize sprouts placed onto an agar layer in 24-well microtiter plates were treated with aqueous test solutions prepared from 10′000 ppm DMSO stock solutions by spraying. After drying, the plates were infested with L2 larvae (6 to 10 per well). The samples were assessed for mortality and growth inhibition in comparison to untreated samples 4 days after infestation.
as §1

CC(NC(=O)c1cc(C(F)(F)F)cc(C(F)(F)C2CC2)c1)c1ncnn1-c1ccc(C#N)cn1 (stereo not drawn) [P4, N-[1-[2-(5-cyano-2-pyridyl)-1,2,4-triazol-3-yl]ethyl]-3-[cyclopropyl(difluoro)methyl]-5-(trifluoromethyl)benzamide]
≥ 80%: percent control (mortality, anti-feedant effect or growth inhibition) at 200 ppm [1] | percent control (mortality or growth inhibition) at 200 ppm [2] | percent control (mortality, anti-feedant effect or growth inhibition) at 200 ppm [3] | percent control (mortality or growth inhibition) at 200 ppm [4]

CC(NC(=O)c1cc(C(F)(F)F)cc(C(F)(F)C2CC2)c1)c1ncnn1-c1ccc(OC(F)F)cn1 (stereo not drawn) [P19, 3-[cyclopropyl(difluoro)methyl]-N-[1-[2-[5-(difluoromethoxy)-2-pyridyl]-1,2,4-triazol-3-yl]ethyl]-5-(trifluoromethyl) benzamide]
≥ 80%: percent control (mortality, anti-feedant effect or growth inhibition) at 200 ppm [1] | percent control (mortality or growth inhibition) at 200 ppm [2] | percent control (mortality, anti-feedant effect or growth inhibition) at 200 ppm [3]

CC(NC(=O)c1cc(C2CC2)nc(C(F)(F)F)c1)c1ncnn1-c1ccc(C#N)cn1 (stereo not drawn) [P15, N-[1-[2-(5-cyano-2-pyridyl)-1,2,4-triazol-3-yl]ethyl]-2-cyclopropyl-6-(trifluoromethyl)pyridine-4-carboxamide]
≥ 80%: percent control (mortality, anti-feedant effect or growth inhibition) at 200 ppm [1] | percent control (mortality or growth inhibition) at 200 ppm [2] | percent control (mortality, anti-feedant effect or growth inhibition) at 200 ppm [3] | percent control (mortality or growth inhibition) at 200 ppm [4]

CC(NC(=O)c1cc(C(F)(F)F)cc(C2(C#N)CC2)c1)c1ncnn1-c1ncc(OC(F)F)cn1 (stereo not drawn) [P26, 3-(1-cyanocyclopropyl)-N-[1-[2-[5-(difluoromethoxy)pyrimidin-2-yl]-1,2,4-triazol-3-yl]ethyl]-5-(trifluoromethyl) benzamide]
≥ 80%: percent control (mortality, anti-feedant effect or growth inhibition) at 200 ppm [1] | percent control (mortality or growth inhibition) at 200 ppm [2] | percent control (mortality, anti-feedant effect or growth inhibition) at 200 ppm [3]

CC(NC(=O)c1cc(C2CC2C(F)(F)F)cc(C(F)(F)F)c1)c1ncnn1-c1ccc(C#N)cn1 (stereo not drawn) [P13, N-[1-[2-(5-cyano-2-pyridyl)-1,2,4-triazol-3-yl]ethyl]-3-(trifluoromethyl)-5-[2-(trifluoromethyl)cyclopropyl]benzamide]
≥ 80%: percent control (mortality, anti-feedant effect or growth inhibition) at 200 ppm [1] | percent control (mortality or growth inhibition) at 200 ppm [2] | percent control (mortality, anti-feedant effect or growth inhibition) at 200 ppm [3] | percent control (mortality or growth inhibition) at 200 ppm [4]

CC(NC(=O)c1cc(C(F)(F)F)cc(C(F)(F)C2CC2)c1)c1ncnn1-c1ncc(OCC(F)F)cn1 (stereo not drawn) [P11, 3-[cyclopropyl(difluoro)methyl]-N-[1-[2-[5-(2,2-difluoroethoxy)pyrimidin-2-yl]-1,2,4-triazol-3-yl]ethyl]-5-(trifluoromethyl) benzamide]
≥ 80%: percent control (mortality, anti-feedant effect or growth inhibition) at 200 ppm [1] | percent control (mortality or growth inhibition) at 200 ppm [2] | percent control (mortality, anti-feedant effect or growth inhibition) at 200 ppm [3] | percent control (mortality or growth inhibition) at 200 ppm [4]

CC(NC(=O)c1cc(C(F)(F)F)nc(C2(C#N)CC2)c1)c1ncnn1-c1ncc(OCC(F)F)cn1 (stereo not drawn) [P10, 2-(1-cyanocyclopropyl)-N-[1-[2-[5-(2,2-difluoroethoxy)pyrimidin-2-yl]-1,2,4-triazol-3-yl]ethyl]-6-(trifluoromethyl) pyridine-4-carboxamide]
≥ 80%: percent control (mortality, anti-feedant effect or growth inhibition) at 200 ppm [1] | percent control (mortality or growth inhibition) at 200 ppm [2] | percent control (mortality, anti-feedant effect or growth inhibition) at 200 ppm [3] | percent control (mortality or growth inhibition) at 200 ppm [4]

CC(NC(=O)c1cc(C(F)(F)F)cc(C(F)(F)C2CC2)c1)c1ncnn1-c1ncc(OCC(F)(F)F)cn1 (stereo not drawn) [P20, 3-[cyclopropyl(difluoro)methyl]-N-[1-[2-[5-(2,2,2-trifluoroethoxy)pyrimdin-2-yl]-1,2,4-triazol-3-yl]ethyl]-5-(trifluoromethyl) benzamide]
≥ 80%: percent control (mortality, anti-feedant effect or growth inhibition) at 200 ppm [1] | percent control (mortality or growth inhibition) at 200 ppm [2] | percent control (mortality, anti-feedant effect or growth inhibition) at 200 ppm [3]

CC(NC(=O)c1cc(C(F)(F)F)cc(C2(C#N)CC2)c1)c1ncnn1-c1ccc(C#N)cn1 (stereo not drawn) [P18, 3-(1-cyanocyclopropyl)-N-[1-[2-(5-cyano-2-pyridyl)-1,2,4-triazol-3-yl]ethyl]-5-(trifluoromethyl) benzamide]
≥ 80%: percent control (mortality, anti-feedant effect or growth inhibition) at 200 ppm [1] | percent control (mortality or growth inhibition) at 200 ppm [2] | percent control (mortality, anti-feedant effect or growth inhibition) at 200 ppm [3]

CC(NC(=O)c1cc(C(F)(F)F)nc(C2(C#N)CC2)c1)c1ncnn1-c1ccc(OC(F)F)cn1 (stereo not drawn) [P17, 2-(1-cyanocyclopropyl)-N-[1-[2-[5-(difluoromethoxy)-2-pyridyl]-1,2,4-triazol-3-yl]ethyl]-6-(trifluoromethyl) pyridine-4-carboxamide]
≥ 80%: percent control (mortality, anti-feedant effect or growth inhibition) at 200 ppm [1] | percent control (mortality or growth inhibition) at 200 ppm [2] | percent control (mortality, anti-feedant effect or growth inhibition) at 200 ppm [3] | percent control (mortality or growth inhibition) at 200 ppm [4]

CC(NC(=O)c1cc(C(F)(F)F)nc(C2(C#N)CC2)c1)c1ncnn1-c1ncc(OC(F)F)cn1 (stereo not drawn) [P8, 2-(1-cyanocyclopropyl)-N-[1-[2-[5-(difluoromethoxy)pyrimidin-2-yl]-1,2,4-triazol-3-yl]ethyl]-6-(trifluoromethyl) pyridine-4-carboxamide]
≥ 80%: percent control (mortality, anti-feedant effect or growth inhibition) at 200 ppm [1] | percent control (mortality or growth inhibition) at 200 ppm [2] | percent control (mortality, anti-feedant effect or growth inhibition) at 200 ppm [3] | percent control (mortality or growth inhibition) at 200 ppm [4]

CC(NC(=O)c1cc(C(F)(F)F)nc(C2(C#N)CC2)c1)c1ncnn1-c1ncc(OCC(F)(F)F)cn1 (stereo not drawn) [P30, 2-(1-cyanocyclopropyl)-N-[1-[2-[5-(2,2,2-trifluoroethoxy)pyrimidin-2-yl]-1,2,4-triazol-3-yl]ethyl]-6-(trifluoromethyl) pyridine-4-carboxamide]
≥ 80%: percent control (mortality or growth inhibition) at 200 ppm [2] | percent control (mortality, anti-feedant effect or growth inhibition) at 200 ppm [3]

CC(NC(=O)c1cc(C2CC2)cc(C(F)(F)F)c1)c1ncnn1-c1ncc(OCC(F)F)cn1 (stereo not drawn) [P23, 3-cyclopropyl-N-[1-[2-[5-(2,2-difluoroethoxy)pyrimidin-2-yl]-1,2,4-triazol-3-yl]ethyl]-5-(trifluoromethyl) benzamide]
≥ 80%: percent control (mortality, anti-feedant effect or growth inhibition) at 200 ppm [1] | percent control (mortality or growth inhibition) at 200 ppm [2] | percent control (mortality, anti-feedant effect or growth inhibition) at 200 ppm [3] | percent control (mortality or growth inhibition) at 200 ppm [4]

CC(NC(=O)c1cc(C(F)(F)F)cc(C2(C#N)CC2)c1)c1ncnn1-c1ncc(OCC(F)F)cn1 (stereo not drawn) [P31, 3-(1-cyanocyclopropyl)-N-[1-[2-[5-(2,2-difluoroethoxy)pyrimidin-2-yl]-1,2,4-triazol-3-yl]ethyl]-5-(trifluoromethyl) benzamide]
≥ 80%: percent control (mortality, anti-feedant effect or growth inhibition) at 200 ppm [1] | percent control (mortality or growth inhibition) at 200 ppm [2]

CC(NC(=O)c1cc(C(F)(F)F)cc(C2(C#N)CC2)c1)c1ncnn1-c1ncc(OCC(F)(F)F)cn1 (stereo not drawn) [P25, 3-(1-cyanocyclopropyl)-N-[1-[2-[5-(2,2,2-trifluoroethoxy)pyrimidin-2-yl]-1,2,4-triazol-3-yl]ethyl]-5-(trifluoromethyl) benzamide]
≥ 80%: percent control (mortality, anti-feedant effect or growth inhibition) at 200 ppm [1] | percent control (mortality or growth inhibition) at 200 ppm [2] | percent control (mortality, anti-feedant effect or growth inhibition) at 200 ppm [3]

From US20220183294A1, “PESTICIDALLY ACTIVE AZOLE AMIDE COMPOUNDS” (SYNGENTA CROP PROTECTION AG, priority 2019, published 2022)
